Laboratory results taken from US12036226B2, “Methods of treating subjects having diabetes with chronic kidney disease” (Poxel SA, priority 2018, dated 2024).
Where two headings read alike, the source gives them in different places.

Legend:
[1] = system: Japanese type 2 diabetic subjects; experiment: Phase 2b dose-ranging placebo-controlled 24-week study in Japanese type 2 diabetic subjects; assay type: in vivo, human; settings: for FPG LSM difference vs baseline / FPG LSM difference vs placebo: 24 weeks, FAS; for responder rate (subjects reaching HbA1c≤7%): end of 24-week treatment (placebo 8.2%)
Experimental: A Dose-Ranging, Randomized, Double-Blind, Placebo-Controlled, Parallel-Group, Multi-Center Study of the Efficacy and Safety of 3 Doses of Imeglimin after 24 Weeks of Treatment in Japanese Type 2 Diabetic Subjects
In this study, a total of 299 subjects with T2DM received either imeglimin at one of the 3 doses (500, 1000 and 1500 mg bid) or placebo. The primary objective of this study was to assess the dose-response of imeglimin at 3 doses (500, 1000 and 1500 mg bid) compared to placebo in male and female subjects with T2DM after 24 weeks of treatment, using glycosylated hemoglobin (HbA1c) as the primary endpoint. Inclusion Criteria: subjects have an eGFR of ≥50 mL/min/1.73 m^2 at screening and >=45 at pre randomization visit. A total of 299 subjects were randomized 1:1:1:1 to one of the 4 study arms, with 268 subjects completing the study.
Percentage of responders was defined as the percentage of subjects who reached a value of HbA1c≤7% at the end of the 24-week double-blind treatment period. The analysis was performed using the FAS for subjects with an HbA1c value greater than 7.0% at baseline.
In a post-hoc analysis, efficacy and safety/tolerability profile was investigated in patients depending on their renal function (CKD 1=eGFR≥90 mL/min/1.73 m^2, CKD2=60≤eGFR<90 mL/min/1.73 m^2, CKD3A=45≤eGFR<60 mL/min/1.73 m^2). 299 patients were randomized 74% of the patients had CKD2, 14% had CKD1, and 12% CKD3A, respectively. The primary endpoint was met with a statistically significant dose-dependent placebo subtracted decrease in HbA1c at the 3 doses with the 2 top doses of 1,000 and 1,500 mg bid reaching an HbA1c decrease of −0.94% and −1.00% respectively (Table 5). […] There were no major differences in the incidence of AE, SAE or AE leading to treatment discontinuation.

[2] = Daily steady-state exposure (AUC24,ss) in a Phase 2b clinical study; assay type: in vivo; settings: human, plasma, oral, 1500 mg, 1500 mg BID treatment arm
Experimental: In addition, predicted daily steady-state exposures (AUC24,ss) for doses of 500 mg BID, 1500 mg QD, and 1000 mg BID in T2DM subjects with CKD stage 3B or 4 in a Phase 1b study were estimated using parameters from the population PK model; the mean AUC24,ss values and standard deviations are shown in FIG. 10. For reference, the mean AUC24,ss and standard deviation from a Phase 2b clinical study is also included in FIG. 10; the mean AUC24,ss in the 1500 mg BID treatment arm in that study was 36.5 μg·hr/mL (the AUC24,ss range was 10.1 to 169.3 μg·hr/mL). At each of the three dose levels, significant overlap in exposure between T2DM subjects with CKD3B and T2DM subjects with CKD4 was predicted as evidenced by the overlap of standard deviation bars between CKD3B and CKD4 subjects at each dose level.

subjects with T2DMs = experiment: Earlier studies in subjects with T2DM for up to 24 weeks (monotherapy, add on to metformin and sitagliptin); assay type: in vivo, human
[3] = CKD Stage 2 (eGFR = 60-90 mL/min/1.73 m^2), 500 mg BID
[4] = CKD Stage 2 (eGFR = 60-90 mL/min/1.73 m^2), 500 mg BID, N 56
[5] = CKD Stage 2 (eGFR = 60-90 mL/min/1.73 m^2), 1000 mg BID
[6] = CKD Stage 2 (eGFR = 60-90 mL/min/1.73 m^2), 1000 mg BID, N 57
[7] = CKD Stage 2 (eGFR = 60-90 mL/min/1.73 m^2), 1500 mg BID
[8] = CKD Stage 2 (eGFR = 60-90 mL/min/1.73 m^2), 1500 mg BID, N 51
[9] = CKD Stage 3a (eGFR < 60 mL/min/1.73 m^2), 500 mg BID
[10] = CKD Stage 3a (eGFR < 60 mL/min/1.73 m^2), 500 mg BID, N 10
[11] = CKD Stage 3a (eGFR < 60 mL/min/1.73 m^2), 1000 mg BID
[12] = CKD Stage 3a (eGFR < 60 mL/min/1.73 m^2), 1000 mg BID, N 7
[13] = CKD Stage 3a (eGFR < 60 mL/min/1.73 m^2), 1500 mg BID
[14] = CKD Stage 3a (eGFR < 60 mL/min/1.73 m^2), 1500 mg BID, N 8
[15] = Normal eGFR (eGFR > 90 mL/min/1.73 m^2), 500 mg BID
[16] = Normal eGFR (eGFR > 90 mL/min/1.73 m^2), 500 mg BID, N 9
[17] = Normal eGFR (eGFR > 90 mL/min/1.73 m^2), 1000 mg BID
[18] = Normal eGFR (eGFR > 90 mL/min/1.73 m^2), 1000 mg BID, N 9
[19] = Normal eGFR (eGFR > 90 mL/min/1.73 m^2), 1500 mg BID
[20] = Normal eGFR (eGFR > 90 mL/min/1.73 m^2), 1500 mg BID, N 14

SMILES: C[C@H]1N=C(N(C)C)N=C(N)N1 [imeglimin, (6R)—N^2, N^2,6-trimethyl-3,6-dihydro-1,3,5-triazine-2,4-diamine]
- TEAE leading to discontinuation ([1]; 500 mg (placebo 13.3%)): 2.7%
- FPG LSM difference vs baseline ([1]; 500 mg bid): 8.0 mg/dL
- FPG LSM difference vs placebo ([1]; 500 mg bid): -8.6 mg/dL
- placebo-adjusted change in HbA1c ([1]; 500 mg bid, baseline HbA1c <8%): −0.47%
- placebo-adjusted change in HbA1c ([1]; 500 mg bid, baseline HbA1c ≥8%): −0.58%
- TEAE leading to discontinuation ([1]; 1000 mg (placebo 13.3%)): 6.8%
- FPG LSM difference vs baseline ([1]; 1000 mg bid): -8.0 mg/dL
- FPG LSM difference vs placebo ([1]; 1000 mg bid): -24.6 mg/dL
- placebo-adjusted change in HbA1c ([1]; 1000 mg bid, baseline HbA1c <8%): −0.93%
- placebo-adjusted change in HbA1c ([1]; 1000 mg bid, baseline HbA1c ≥8%): −0.90%
- responder rate (subjects reaching HbA1c≤7%) ([1]; 1000 mg bid): 33.3%
- TEAE leading to discontinuation ([1]; 1500 mg (placebo 13.3%)): 6.7%
- subjects requiring a rescue therapy due to poor glycemic control ([1]; 1500 mg bid (placebo 10.7%)): no subjects requiring rescue therapy
- FPG LSM difference vs baseline ([1]; 1500 mg bid): -8.0 mg/dL
- FPG LSM difference vs placebo ([1]; 1500 mg bid): -24.6 mg/dL
- placebo-adjusted change in HbA1c ([1]; 1500 mg bid, baseline HbA1c <8%): −0.82%
- placebo-adjusted change in HbA1c ([1]; 1500 mg bid, baseline HbA1c ≥8%): −1.2%
- responder rate (subjects reaching HbA1c≤7%) ([1]; 1500 mg bid): 32.9%
- Decrease in FPG (placebo-adjusted) ([1]; 2 top doses of 1000 and 1500 mg bid): 1.37 mmol/L
- SAE or AE leading to discontinuation ([1]; CKD3a subgroup, post-hoc analysis): No SAE or AE leading to discontinuation were observed
- FPG LSM Difference vs. Placebo, Week 24 [1, 3]: -14.2 mg/dL
- HbA1c LSM Difference vs. Placebo (SEM), Week 24 [1, 3]: −0.60%
- Change in FPG from baseline, Week 24 LS Mean [1, 4]: 5.8 mg/dL
- Change in HbA1c from baseline, Week 24 LS Mean (SEM) [1, 4]: −0.08 (0.109) %
- HbA1c LSM Difference vs. Placebo (SEM), Week 24 ([1]; CKD Stage 2 (eGFR = 60-90 mL/min/1.73 m^2), 500 mg BID, listed as Imeglimin): −0.60 (0.154) %
- FPG LSM Difference vs. Placebo, Week 24 [1, 5]: -26.5 mg/dL
- HbA1c LSM Difference vs. Placebo (SEM), Week 24 [1, 5]: −1.03%
- Change in FPG from baseline, Week 24 LS Mean [1, 6]: -6.5 mg/dL
- Change in HbA1c from baseline, Week 24 LS Mean (SEM) [1, 6]: −0.51 (0.110) %
- HbA1c LSM Difference vs. Placebo (SEM), Week 24 ([1]; CKD Stage 2 (eGFR = 60-90 mL/min/1.73 m^2), 1000 mg BID, listed as Imeglimin): −1.03 (0.155) %
- FPG LSM Difference vs. Placebo, Week 24 [1, 7]: -33.0 mg/dL
- HbA1c LSM Difference vs. Placebo (SEM), Week 24 [1, 7]: −1.11%
- Change in FPG from baseline, Week 24 LS Mean [1, 8]: -12.9 mg/dL
- Change in HbA1c from baseline, Week 24 LS Mean (SEM) [1, 8]: −0.58 (0.117) %
- HbA1c LSM Difference vs. Placebo (SEM), Week 24 ([1]; CKD Stage 2 (eGFR = 60-90 mL/min/1.73 m^2), 1500 mg BID, listed as Imeglimin): −1.11 (0.160) %
- FPG LSM Difference vs. Placebo, Week 24 [1, 9]: -6.7 mg/dL
- HbA1c LSM Difference vs. Placebo (SEM), Week 24 [1, 9]: −0.54%
- Change in FPG from baseline, Week 24 LS Mean [1, 10]: 1.7 mg/dL
- Change in HbA1c from baseline, Week 24 LS Mean (SEM) [1, 10]: −0.32 (0.240) %
- HbA1c LSM Difference vs. Placebo (SEM), Week 24 ([1]; CKD Stage 3a (eGFR < 60 mL/min/1.73 m^2), 500 mg BID, listed as Imeglimin): −0.54 (0.336) %
- FPG LSM Difference vs. Placebo, Week 24 [1, 11]: -11.2 mg/dL
- HbA1c LSM Difference vs. Placebo (SEM), Week 24 [1, 11]: −0.44%
- Change in FPG from baseline, Week 24 LS Mean [1, 12]: -2.8 mg/dL
- Change in HbA1c from baseline, Week 24 LS Mean (SEM) [1, 12]: −0.22 (0.282) %
- HbA1c LSM Difference vs. Placebo (SEM), Week 24 ([1]; CKD Stage 3a (eGFR < 60 mL/min/1.73 m^2), 1000 mg BID, listed as Imeglimin): −0.44 (0.368) %
- FPG LSM Difference vs. Placebo, Week 24 [1, 13]: -20.6 mg/dL
- HbA1c LSM Difference vs. Placebo (SEM), Week 24 [1, 13]: −1.07%
- Change in FPG from baseline, Week 24 LS Mean [1, 14]: -12.2 mg/dL
- Change in HbA1c from baseline, Week 24 LS Mean (SEM) [1, 14]: −0.86 (0.265) %
- HbA1c LSM Difference vs. Placebo (SEM), Week 24 ([1]; CKD Stage 3a (eGFR < 60 mL/min/1.73 m^2), 1500 mg BID, listed as Imeglimin): −1.07 (0.353) %
- incidence of subjects presenting with Treatment Emergent (TE) AE ([1]; Imeglimin 1000 mg): 62.2%
- incidence of subjects presenting with any adverse event (AE) ([1]; Imeglimin 1000 mg): 73%
- incidence of subjects presenting with Treatment Emergent (TE) AE ([1]; Imeglimin 1500 mg): 73.3%
- incidence of subjects presenting with any adverse event (AE) ([1]; Imeglimin 1500 mg): 77.3%
- FPG LSM Difference vs. Placebo, Week 24 [1, 15]: 14.5 mg/dL
- HbA1c LSM Difference vs. Placebo (SEM), Week 24 [1, 15]: −0.01 (0.290) %
- Change in FPG from baseline, Week 24 LS Mean [1, 16]: 15.9 mg/dL
- Change in HbA1c from baseline, Week 24 LS Mean (SEM) [1, 16]: 0.04 (0.221) %
- FPG LSM Difference vs. Placebo, Week 24 [1, 17]: -28.1 mg/dL
- HbA1c LSM Difference vs. Placebo (SEM), Week 24 [1, 17]: −0.85 (0.283) %
- Change in FPG from baseline, Week 24 LS Mean [1, 18]: -26.6 mg/dL
- Change in HbA1c from baseline, Week 24 LS Mean (SEM) [1, 18]: −0.8 (0.213) %
- FPG LSM Difference vs. Placebo, Week 24 [1, 19]: 5.1 mg/dL
- HbA1c LSM Difference vs. Placebo (SEM), Week 24 [1, 19]: −0.47 (0.260) %
- Change in FPG from baseline, Week 24 LS Mean [1, 20]: 6.6 mg/dL
- Change in HbA1c from baseline, Week 24 LS Mean (SEM) [1, 20]: −0.42 (0.175) %
- incidence of TEAE considered as related to the study drug ([1]; imeglimin 500 mg (placebo 8%)): 5.3%
- incidence of TEAE from the gastrointestinal disorder SOC ([1]; imeglimin 500 mg (placebo 14.7%)): 14.7%
- serious TEAEs ([1]; imeglimin 500 mg bid): none
- incidence of TEAE considered as related to the study drug ([1]; imeglimin 1000 mg (placebo 8%)): 5.4%
- incidence of TEAE from the gastrointestinal disorder SOC ([1]; imeglimin 1000 mg (placebo 14.7%)): 18.9%
- serious TEAEs ([1]; imeglimin 1000 mg bid): 5.4%
- incidence of TEAE considered as related to the study drug ([1]; imeglimin 1500 mg (placebo 8%)): 24%
- incidence of TEAE from the gastrointestinal disorder SOC ([1]; imeglimin 1500 mg (placebo 14.7%)): 32%
- serious TEAEs ([1]; imeglimin 1500 mg bid): 1.3%
- AUC ([2]; read-out: AUC24,ss range): 10100 to 169000 ng·h/mL
- AUC ([2]; read-out: mean AUC24,ss): 36500 ng·h/mL
- tolerability / safety profile (subjects with T2DMs): well-tolerated with a safety profile comparable to that of placebo
